What was measured:
[1] = test system: blastocyst implantation in murine endometrial epithelium monolayers; experiment: In vitro implantation - mouse model (blastocysts co-cultured with endometrial monolayer); format: cell-based; details: for Test impl/total (no. of blastocysts implanting/total no. of blastocysts added to the culture): test medium supplemented with 0.1 mM test oligosaccharide, control medium values stand in the neighbouring column
Method: In the mouse in vitro implantation system blastocyst implantation in murine endometrial epithelium monolayers was compared in 2 different media: the control medium (i.e. a medium which had supported more than 80% murine blastocyst formation from 2-cell embryos within 72 hours) and test medium (i.e. identical with the control medium except supplemented with 0.1 mM test oligosaccharide).
As control medium we used Earle's minimum essential medium (MEM) (Flow Lab), supplemented with penicillin-G 0.0075 g/l, streptomycin 0.075 g/l, glutamine 1 mM, fetal calf serum 5% and a vegetable protein source 2% (Ultrose-G, LKB, 2216-100). The final osmolality was adjusted to 285 mOsmol/kg and a pH of 7.4.
The mice were F1 hybrid B6D2F1/Bom (from the Laboratory of Animal Breeding and Research Center, Gl.Bomholdt Gȧrd, LTv., 8680 Ry, Denmark). Females aged 26 days and weighing 13-18 g and mature 6 months old males of previously proven fertility were used. They were housed in air-conditioned quarters with pelleted food and water available ad libitum and light between 7.30 a.m. and 7.30 p.m.
The female mice were superovulated with 5 I.U. FSH/LH (Antex, Leo Pharmaceuticals, Denmark) injected intraperitoneally at 9 a.m. day 1. 48 hours later (on day 3), ovulation was induced with 2.5 I.U. HCG. They were caged with males at 1 p.m. and left overnight. Mating was confirmed on the morning of day 4 by the presence of a vaginal plug.
Females were sacrificed at 9 a.m. on day 5. The oviducts were isolated and the 2-cell embryos flushed from the tubes using hand drawn glass pipettes.
Handling the 2-cells embryos outside the CO₂ incubator was carried out in the control medium supplemented with a HEPES buffer 20 mM (Flow Lab. 16-884-49).
After the oviducts were collected, the uterus of each mouse was isolated. The uterus was opened longitudinally and scraped with a rubber policeman on the uterine epithelial surface to col lect endometrial cells. These cells were handled in the HEPES buffered control medium as well. […]

implantation = experiment: In vivo inhibition of implantation in the mouse (intrauterine injection); set-up: species or system NMRI mice
Method: In this study the effect of structure A, injected into the uteri of naturally mated and unstimulated mice, was investigated.
10 weeks old NMRI mice were caged with NMRI males of previously proven fertility.
At plug day 4 (at 1 p.m.) the mice were anaestezed using mebumal. The abdomen was opened through a midline incision and the genital tract was identified. A 6-0 selk sutur was placed around the vaginal top intraperitoneally. 5µl of Earle's balanced salt solution (EBS) supplemented with 5 mmol/l of structure A or unsupplemented were injected into the uterine horns. The test group contained 20 mice who were injected with supplemented media containing structure A, where as the controls (15 mice) were injected with EBS unsupplemented medium.

667/9E9 = experiment: Inhibition by oligosaccharide of 667/9E9 staining of endometrial sections; format: binding, mice; details: day 4 and 5 sections; addition of 1 mM
Method: Fixed or unfixed sections were hydrated in Dulbecco's phosphate buffer pH 7.2, containing 0.1% Bovine serum albumin and 0.05% Tween 20. All antibodies and sera were diluted in the same buffer. The sections were incubated for 30 minutes in a 1/20 dilution of normal non immune goat serum […] to prevent nonspecific binding. Monoclonal antibody supernatants were diluted to either 1/10 or 1/20. The sections were overlayered with 50 µl of the primary antibody and incubated overnight in a humidified atmosphere at 4°C. Following this the sections were rinsed 4 times in the buffer and again incubated for 30 minutes in 1/20 normal goat serum. They were then stained with the second antibody, a fluorescein isothiocyanate (FITC) conjugated goat anti-mouse IgM at a final dilution of 1/80. The sections were finally rinsed in the buffer and mounted in 2.5% DABCO (Boehringer Mannheim, Germany) in 80% glycerol.

CC(=O)N[C@H]1[C@H](O[C@H]2[C@@H](O)[C@@H](CO)O[C@@H](O[C@H]3[C@H](O)[C@@H](O)C(O)O[C@@H]3CO)[C@@H]2O)O[C@H](CO)[C@@H](O)[C@@H]1O[C@@H]1O[C@H](CO)[C@H](O)[C@H](O)[C@H]1O[C@@H]1O[C@@H](C)[C@@H](O)[C@@H](O)[C@@H]1O (stereo partly drawn) [structure A]
inhibition of implantation of mouse embryos (in words) ([1]; oligosaccharide concentration of 0.1 mM): inhibits the implantation of mouse embryos | Test impl/total (no. of blastocysts implanting/total no. of blastocysts added to the culture) [1]: 134/228 | inhibition of implantation in vivo (in words) (implantation; 5 mmol/l, 5µl into the uterine horns): inhibits implantation in vivo in the mouse | Impl/horn (implantation; 5µl EBS with 5 mmol/l injected into the uterine horns at plug day 4, 20 mice, controls 4.2): 1.15 | inhibition of the staining of the endometrial sections by 667/9E9 (667/9E9): could be inhibited

CC(=O)N[C@H]1[C@H](O[C@H]2[C@@H](O)[C@@H](CO)O[C@@H](O[C@H]3[C@H](O)[C@@H](O)C(O)O[C@@H]3CO)[C@@H]2O)O[C@H](CO)[C@@H](O)[C@@H]1O[C@@H]1O[C@H](CO)[C@H](O)[C@H](O)[C@H]1O (stereo partly drawn) [structure B, reference compound]
Test impl/total (no. of blastocysts implanting/total no. of blastocysts added to the culture) [1]: 92/129

From patent publication EP0298064A2, “Birth control and diagnostic methods” (BIOCARB AB, priority 1987, dated 1989)
